Activity calls are given as the source filed them. The calls are words filed in the database; no cut-off is given here.

The test system of the first test is Mus musculus. Kind of test: Antidepressant activity in Mus musculus Kunming (mouse) assessed as reduction in immobility time at 10 mg/kg, ip administered 30 min before test by forced swim test relative to control. In kind it is functional. The arrangement: scale not given: the % may be the effect or the level left. To be noted: route intraperitoneal.
On to `O=C(/C=C/c1cccc(Cl)c1)c1c(O)cc(O)cc1O`, for which the Activity was 27.57%. On the same count and under the same terms, the value for `O=C(/C=C/c1ccccc1Br)c1c(O)cc(O)cc1O` was 50.04%; that for `O=C(/C=C/c1cccc(F)c1)c1c(O)cc(O)cc1O` was 17.21%. On the same count and under the same terms, the figure for `O=C(/C=C/c1ccc(Cl)cc1)c1c(O)cc(O)cc1O` [4-CHLORO-2',4',6'-TRIHYDROXYCHALCONE] is 27.07%; for `Cc1ccc(/C=C/C(=O)c2c(O)cc(O)cc2O)cc1C` it is 13.31%. For the compound `COc1ccc(/C=C/C(=O)c2c(O)cc(O)cc2O)cc1OC`, the Activity was found to be 17.57%. Same read-out and setting: the value for `O=C(/C=C/c1ccc(F)cc1)c1c(O)cc(O)cc1O` [4-FLUORO-2',4',6'-TRIHYDROXYCHALCONE] was 4.39%; that for `COc1cc(/C=C/C(=O)c2c(O)cc(O)cc2O)ccc1O` was 22.89%; that for `O=C(/C=C/c1cccc(Br)c1)c1c(O)cc(O)cc1O` was 26.64%.

Consider `O=C(/C=C/c1ccc(Cl)cc1Cl)c1c(O)cc(O)cc1O`, for which the Activity turned out to be 27.43%. As to `O=C(/C=C/c1ccc(O)c(O)c1)c1c(O)cc(O)cc1O` [3,4,2',4',6'-PENTAHYDROXYCHALCONE], the Activity was found to be 29.09%.

Regarding `O=C(/C=C/c1ccc(O)cc1)c1c(O)cc(O)cc1O` [4,2',4',6'-TETRAHYDROXYCHALCONE], the Activity was determined as 28.51%.

Consider `O=C(/C=C/c1ccccc1Cl)c1c(O)cc(O)cc1O`, for which the Activity came to 18.72%. Same read-out and setting: the value for `COc1ccc(/C=C/C(=O)c2c(O)cc(O)cc2O)cc1` [4-METHOXYL-2',4',6'-TRIHYDROXYCHALCONE] was 11.09%; that for `O=C(/C=C/c1ccccc1F)c1c(O)cc(O)cc1O` was 33.55%; that for `Cc1ccc(/C=C/C(=O)c2c(O)cc(O)cc2O)cc1` was 17.35%.

`CNCCC(Oc1ccc(C(F)(F)F)cc1)c1ccccc1` (stereo not given) [FLUOXETINE]: the Activity was 58.68%.

As for `O=C(/C=C/c1ccc(Br)cc1)c1c(O)cc(O)cc1O` [4-BROMO-2',4',6'-TRIHYDROXYCHALCONE], the Activity worked out at 19.29%.

The subject of another test is Mus musculus. Kind of test: Antidepressant activity in Mus musculus Kunming (mouse) assessed as reduction in immobility time at 10 to 40 mg/kg, ip administered 30 min before test by forced swim test.
Conditions: not given
In kind it is functional, organism-based.
Regarding `O=C(/C=C/c1ccccc1Br)c1c(O)cc(O)cc1O`, the outcome was Active.

For a further test, the system named is Mus musculus. As to the kind of experiment: Antidepressant activity in Mus musculus (mouse) assessed as reduction in immobility time at 10 to 40 mg/kg, ip administered 30 min before test by tail suspension test. In kind it is functional, organism-based.
Conditions: not given
Consider `O=C(/C=C/c1ccccc1Br)c1c(O)cc(O)cc1O`, for which the result was Active.

(Values after ChEMBL document CHEMBL3046575, “Synthesis and studies on antidepressant activity of 2,4,6-trihydroxychalcone derivatives” (2012).)
